Measured values reported in patent US10155807B2, “Treating alcohol-mediated disorders by inhibition of RGS6” (UNIVERSITY OF IOWA RESEARCH FOUNDATION, priority 2014, dated 2018).

Legend:
[1] = molecular target: T1, RGS6:Gαo protein:protein interaction (ppi) (Homo sapiens, UniProt P49758); assay: Alpha Screen dose response, RGS6:Gαo protein:protein interaction; assay type: binding; conditions: for IC50: Alpha Screen dose response, truncated RGS6 construct, read-out: IC50 for inhibition of RGS6:Gαo ppi; for selectivity for inhibiting the RGS6:Gαo ppi over the assay (control): ppi vs assay counter-screen
T1 sequence (P49758 336-441 limits assumed): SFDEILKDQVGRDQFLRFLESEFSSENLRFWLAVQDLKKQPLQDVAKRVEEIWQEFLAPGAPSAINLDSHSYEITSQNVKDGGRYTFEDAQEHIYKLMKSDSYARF
Text: A high throughput screen based upon the protein-protein interaction between RGS6 and its cognate G protein has been developed. This is an approach used for other RGS proteins (Bodle et al. Future Med Chem 5: 995-1007, 2013; Mackie et al. J Biomol Screen 16: 869-877, 2011; Monroy et al. PloS one 8: e62247, 2013). Briefly, human RGS6 and G protein from E. coli is expressed and purified, which are then chemically modified to attach to microspheres. These microspheres (AlphaScreen) are then dispensed into high density experimental plates, with either 384 or 1536 wells per plate. Into each of these wells, an individual compound is dispensed, and through the use of a chemiluminescent reaction between the RGS6 and G protein coated beads, whether or not the two proteins are interacting is determined. […] A critical measure is the “Z-factor,” which indicates the ability to detect an inhibitor based on the screening signal strength, and the difference between positive and negative control values. A Z-factor between 0.5 and 1 is considered to be acceptable, and the Z-factor for the RGS6 assay is quite good, at 0.61. Using this method, a screen of 2320 compounds has been completed in 384-well plates. […] These compounds are being evaluated in testing for specificity and effectiveness in functional assays. Accessing the much larger 50,000 compound Chembridge library held by UI HTS will allow much larger coverage of “chemical space” to sample chemotypes that may represent RGS6 inhibitors with drug like properties.
As described herein, a role for RGS6 in the regulation of alcohol dependency traits, and that inhibition of this protein may act as a therapeutic intervention for the disease of alcohol addiction. As such, 2320 compounds were screened in an initial effort to discover small molecule inhibitors of the RGS6:Gαo protein:protein interaction (ppi). Alpha screen technology was used in this screen, where both proteins are conjugated to their respective donor or acceptor beads and if a ppi exists the proximity of the beads to each other results in emission of light at 520-620 nm. If a small molecule disrupts the ppi, then the intensity of light emitted is diminished.
IC50 values were obtained from dose response experiments using Alpha Screen technology. Compounds were determined to be promising based on these IC50 values, and based on the selectivity the compounds had for inhibiting the ppi versus inhibiting the assay. Since the Alpha Screen assay utilizes emitted light produced by singlet oxygen interacting with the acceptor bead as a determinant of ppi, highly colored compounds, or compounds that act as oxygen scavengers can produce false positive inhibition of the assay. […] This was not determined for UI1956.
The compounds identified in this screen represent the first generation of RGS6 inhibitors. A larger screening campaign will yield molecules that are both potent and selective for inhibiting RGS6 while containing minimal reactive substructures thus cutting down on the possible side effects that reactive molecules often produce. An additional screen will utilize the full RGS6 protein. This differs from the preliminary screen above in that a truncated RGS6 construct was used for ease of purification. […]

RGS6−/− mice [2] = assay: Activity measurement in home cage after baclofen (sedation); assay type: in vivo; conditions: 10 mg/kg i.p.; immobility time over 20 min
Experimental: After drug treatment mice were placed back in their home cage and behavior videotaped for 20 min. Videos were scored for total immobility time (no discernable ambulation, grooming, social or other behaviors) by an observer blinded to mouse genotype. Data are presented as percent total time spent immobile.

[3] = tested on: neonatal VCM isolated from WT and RGS6−/− mice; conditions: 1 μM, 1.5 hour pre-treatment; 200 mM EtOH 24 hours; WT vs RGS6−/− VCM
Experimental: Twenty-four hours after isolation and plating, cells were treated with 200 mM EtOH (24 hours) in the presence or absence of DPI (1 μM, 1.5 hour pre-treatment) where indicated. […] Intracellular ROS generation was estimated using the cell-permeable oxidation-sensitive probe, CM-H2DCFDA (Sigma) as described previously (Maity et al., J Biol Chem. 2011; 286(2):1409-19). Briefly, cells were harvested by centrifugation, washed three times with ice-cold PBS, re-suspended in PBS and incubated with 5 μM CM-H2DCFDA for 20 minutes at 37° C. After incubation cells were again washed and lysed in PBS with 1% Tween 20. ROS level was determined at the ratio of dichlorofluorescein excitation at 480 nm to emission at 530 nm.

RGS6−/− mice [4] = assay: Short-term free choice alcohol consumption with daily GABABR antagonist treatment; assay type: in vivo; conditions: 12.5 mg/kg i.p. daily; 8% EtOH free choice phase
Text: RGS6 was identified as a critical negative regulator of cerebellum GABABR-regulated motor behavior (Maity et al., J Biol Chem. 2012; 287(7):4972-81). The involvement of GABABR signaling in the reduction in alcohol drinking observed in mice lacking RGS6 was investigated. […] Both the time course of GABABR-induced activation and deactivation of the mitogen activated protein kinase (MAPK) signaling cascade were pro-longed in the cortex of RGS6^−/− mice. […] To directly test the involvement of GABABR signaling in the reduction in alcohol seeking behavior seen in RGS6^−/− mice, the short-term free choice EtOH consumption paradigm was repeated with the addition of daily GABABR antagonist treatments.
Short-term alcohol consumption was measured in WT and RGS6^−/− mice essentially as previously described (Lockridge et al., Alcohol. 2012; 46(4):389-400). First, mice were individually housed for 2 days prior to the experiment. Each cage was then outfitted with two drinking bottles made from graduated serological pipettes sealed with parafilm to prevent evaporation and attached to each cage. […] Volume levels were recorded daily, tubes refilled and mice weighed. […] Alcohol (or saccharin/quinine) preference was calculated by dividing the EtOH volume consumed by the total fluid intake.

O=c1c(-c2cc(O)c(O)c(O)c2)coc2cc(O)c(O)c(O)c12 [UI1956]
IC50 [1]: 42 µM

Oc1ccc2c(c1)OCC1(O)Cc3cc(O)c(O)cc3C21 (centres unmarked) [UI1910]
IC50 [1]: 17 µM | selectivity for inhibiting the RGS6:Gαo ppi over the assay (control) [1]: 30 fold

NCC(CC(=O)O)c1ccc(Cl)cc1 (centres unmarked) [baclofen]
sedative effect in RGS6−/− mice (RGS6−/− mice [2]): remarkably sensitized to the sedative effects

O=C1C=C2C[C@@]3(O)COc4cc(O)ccc4C3=C2C=C1O [UI1935]
IC50 [1]: 49 µM | selectivity for inhibiting the RGS6:Gαo ppi over the assay (control) [1]: 5 fold

c1ccc2c(c1)[I+]c1ccccc1-2 [DPI, diphenyleneiodonium]
alcohol-induced ROS generation in VCM [3]: significantly reduced ROS generation in WT but not RGS6^−/− VCM

CC1(C)CO[C@@H](CC(=O)O)CN1 [SCH-50911]
effect on reduced EtOH consumption of RGS6−/− mice (RGS6−/− mice [4]): partially reversed the reduction in alcohol consumption
